Common to all, as to type: cell-based
The subject of assay [1] is Target C CJ mRNA. As to the kind of experiment: Gene panel canonical junction qPCR splicing assay, Target C. The following applies: Table 4, read-out: Target C IC50 (decrease in CJ mRNA levels). The method, then:
(§1) Compounds described herein were used to modulate RNA transcript abundance in cells. The expression of a target mRNA was measured by detecting the formation of an exon-exon junction in the canonical transcript (CJ). A compound mediated exon-inclusion event was detected by observing an increase in formation of a new junction with an alternative exon (AJ). Real-time qPCR assays were used to detect these splicing switches and interrogate the potency of various compounds towards different target genes. A high-throughput real time quantitative PCR (RT-qPCR) assay was developed to measure these two isoforms of the mRNA (CJ and AJ) for an exemplary gene, HTT, together with a control housekeeping gene, GAPDH or GUSB or PPIA, used for normalization. Briefly, the A673 or K562 cell line was treated with various compounds described herein (e.g., compounds of Formula (I) or (II)). After treatment, the levels of the HTT mRNA targets were determined from each sample of cell lysate by cDNA synthesis followed by qPCR. The data analysis was performed by first determining the ΔCt vs the housekeeper gene. This ΔCt was then normalized against the DMSO control (ΔΔCt) and converted to RQ (relative quantification) using the 2^(−ΔΔCt) equation. The RQ were then converted to a percentage response by arbitrarily setting an assay window of 3.5 ΔCt for HTT-CJ and an assay window of 9 ΔCt for HTT-AJ. […] The percentage response was then fitted to the 4 parametric logistic equation to evaluate the concentration dependence of compound treatment. The increase in AJ mRNA is reported as AC50 (compound concentration having 50% response in AJ increase) while the decrease in CJ mRNA levels is reported as IC50 (compound concentration having 50% response in CJ decrease). Additional studies were carried out for a larger panel of genes using the protocol provided above. The junction between flanking upstream and downstream exons was used to design canonical junction qPCR assays. At least one of the forward primer, reverse primer or the CY5-labeled 5′ nuclease probe (with 3′ quencher such as ZEN/Iowa Black FQ) was designed to overlap with the exon junction to capture the CJ mRNA transcript. BLAST was used to confirm the specificity of the probeset and parameters such as melting temperature, GC content, amplicon size, and primer dimer formation are considered during their design. Data for the decrease in CJ mRNA levels for three exemplary genes (HTT, SMN2, and Target C) analyzed in this panel are reported as IC50 (compound concentration having 50% response in CJ decrease).

Assay [2] relates to HTT mRNA. As to the kind of experiment: Splicing assay (RT-qPCR) of HTT mRNA alternative junction (AJ) and canonical junction (CJ). The following applies: A673 or K562 cells, 24 hours; for IC50: decrease in CJ mRNA, read-out: HTT CJ IC50; for AC50: increase in AJ mRNA, read-out: HTT AJ AC50. The method, then:
Compounds described herein were used to modulate RNA transcript abundance in cells. The expression of a target mRNA was measured by detecting the formation of an exon-exon junction in the canonical transcript (CJ). A compound mediated exon-inclusion event was detected by observing an increase in formation of a new junction with an alternative exon (AJ). Real-time qPCR assays were used to detect these splicing switches and interrogate the potency of various compounds towards different target genes. A high-throughput real time quantitative PCR (RT-qPCR) assay was developed to measure these two isoforms of the mRNA (CJ and AJ) for an exemplary gene, HTT, together with a control housekeeping gene, GAPDH or GUSB or PPIA, used for normalization. Briefly, the A673 or K562 cell line was treated with various compounds described herein (e.g., compounds of Formula (I) or (II)). After treatment, the levels of the HTT mRNA targets were determined from each sample of cell lysate by cDNA synthesis followed by qPCR.
Materials: • Cells-to-CT 1-step kit: ThermoFisher A25602, Cells-to-CT lysis reagent: ThermoFisher 4391851C, TagMan™ Fast Virus 1-Step Master Mix: ThermoFisher 4444436 • GAPDH: VIC-PL, ThermoFisher 4326317E (Assay: Hs99999905_ml)—used for K562/suspension cell lines • GUSB: VIC-PL, ThermoFisher 4326320E (Assay: Hs99999908 ml)—used for K562/suspension cell lines • PPIA: VIC-PL, ThermoFisher 4326316E (Assay: Hs99999904 ml)—used for A673/adherent cell lines
The A673 cell line was cultured in DMEM with 10% FBS. Cells were diluted with full growth media and plated in a 96-well plate (15,000 cells in 100 ul media per well). The plate was incubated at 37° C. with 5% CO2 for 24 hours to allow cells to adhere. An 11-point 3-fold serial dilution of the compounds was made in DMSO then diluted in media in an intermediate plate. Compounds were transferred from the intermediate plate to the cell plate with the top dose at a final concentration of 10 uM in the well. Final DMSO concentration was kept at or below 0.25%. The cell plate was returned to the incubator at 37° C. with 5% CO2 for an additional 24 hours.
The K562 cell line was cultured in IMDM with 10% FBS. For K562, cells were diluted with full growth media and plated in either a 96-well plate (50,000 cells in 50 uL media per well) or a 384-well plate (8,000-40,000 cells in 45 uL media per well). An 11-point 3-fold serial dilution of the compounds were made in DMSO then diluted in media in an intermediate plate. Compound was transferred from the intermediate plate to the cell plate with the top dose at a final concentration of 10 uM in the well. Final DMSO concentration was kept at or below 0.25%. Final volume was 100 uL for 96-well plate and 50 uL for 384-well plate. The cell plate was then placed in an incubator at 37° C. with 5% CO2 for 24 hours.
The cells were then gently washed with 50 uL-100 uL cold PBS before proceeding to addition of lysis buffer. 30 uL-50 uL of room temperature lysis buffer with DNAse I (and optionally RNAsin) was added to each well. Cells were shaken/mixed thoroughly at room temperature for 5-10 minutes for lysis to take place and then 3 uL-5 uL of room temperature stop solution was added and wells were shaken/mixed again. After 2-5 minutes, the cell lysate plate was transferred to ice for RT-qPCR reaction setup. The lysates could also be frozen at −80° C. for later use.
In some cases, a direct lysis buffer was used. An appropriate volume of 3X lysis buffer (10 mM Tris, 150 mM NaCl, 1.5%-2.5% Igepal and 0.1-1 U/uL RNAsin, pH 7.4) was directly added to either K562 or A673 cells in media and mixed by pipetting 3 times. The plates were then incubated at room temperature with shaking/rocking for 20-50 minutes to allow for lysis to take place. After this time, the cell lysate plate was transferred to ice to set up for the RT-qPCR reactions. The lysates could also be frozen at −80° C. for later use. […]
(In general: Real-time PCR tracks product formation cycle by cycle.)

The subject of assay [3] is SMN2 CJ mRNA. Nature of the assay: Gene panel canonical junction qPCR splicing assay, SMN2. The note with it: Table 4, read-out: SMN2 IC50 (decrease in CJ mRNA levels). The procedure:
as §1

Assay [4] has as its system HTT CJ mRNA. As to the kind of experiment: Gene panel canonical junction qPCR splicing assay, HTT. The note with it: Table 4, read-out: HTT IC50 (decrease in CJ mRNA levels). The method, then:
as §1

This is an account of results in patent US20240002375A1, “2-(INDAZOL-5-YL)-6-(PIPERIDIN-4-YL)-1,7-NAPHTHYRIDINE DERIVATIVES AND RELATED COMPOUNDS AS MODULATORS FOR SPLICING NUCLEIC ACIDS AND FOR THE TRE” (REMIX THERAPEUTICS INC., priority 2020, published 2024).

One may read the IC50 as the midpoint of a concentration-inhibition curve. For orientation: AC50 means the concentration at which the activity in the assay is half-maximal. Regarding `Cc1nc2c(C)c(O)c(-c3ccc4nc(N5CCC(NC6CC6)C5)ccc4n3)cc2o1` (single isomer, unassigned) [Compound 216, 6-{6-[3-(cyclopropylamino)pyrrolidin-1-yl]-1,5-naphthyridin-2-yl}-2,4-dimethyl-1,3-benzoxazol-5-ol], the IC50 in assay [1], in assay [2], in assay [3] and in assay [4] was less than 100 nM in each case. The AC50 in assay [2] was less than 100 nM.

Turning to `Cc1nc2c(C)c(O)c(-c3ccc4nc(N5CCC(NC6CC6)C5)ccc4n3)cc2o1` (single isomer, unassigned) [Compound 217, 6-{6-[3-(cyclopropylamino)pyrrolidin-1-yl]-1,5-naphthyridin-2-yl}-2,4-dimethyl-1,3-benzoxazol-5-ol], the IC50 in assay [1], in assay [2], in assay [3] and in assay [4] was less than 100 nM each time. In assay [2], the AC50 is less than 100 nM.

As for `Cn1cc2cc(-c3ccc4nc(N5CC[C@@H](NC6(C)CC6)C5)ccc4n3)c(O)cc2n1` (single isomer, unassigned) [Compound 220], the 50% inhibitory concentration (IC50) in assay [1], in assay [2], in assay [3] and in assay [4] was less than 100 nM each time. In addition, in assay [2], the AC50 was less than 100 nM.

Take `Cn1cc2cc(-c3ccc4nc(N5CC[C@H](NC6(C)CC6)C5)ccc4n3)c(O)cc2n1` (single isomer, unassigned) [Compound 221, 2-methyl-5-{6-[(35)-3-[(1-methylcyclopropyl)amino]pyrrolidin-1-yl]-1,5-naphthyridin-2-yl}indazol-6-ol]: the IC50 in assay [1], in assay [2], in assay [3] and in assay [4] was less than 100 nM throughout. The half-maximal activity concentration (AC50) in assay [2] was less than 100 nM.

For `Cn1cc2cc(-c3ccc4nc(N5CC[C@H](NC6(C)CC6)C5)ccc4n3)c(O)c(F)c2n1` (single isomer, unassigned) [Compound 222, 7-fluoro-2-methyl-5-{6-[(3 S)-3-[(1-methylcyclopropyl)amino]pyrrolidin-1-yl]-1,5-naphthyridin-2-yl}indazol-6-ol], the IC50 in assay [1], in assay [2], in assay [3] and in assay [4] was less than 100 nM throughout. Besides, in assay [2], the AC50 was less than 100 nM.

As to `Cn1cc2cc(-c3ccc4nc(N5CC[C@@H](NC6(C)CC6)C5)ccc4n3)c(O)c(F)c2n1` (single isomer, unassigned) [Compound 223], the IC50 in assay [1], in assay [2], in assay [3] and in assay [4] was less than 100 nM throughout. Further, the AC50 in assay [2] was less than 100 nM.

For the molecule `Cc1c(O)c(-c2ccc3nc(N4CC[C@@H](NC5(C)CC5)C4)ccc3n2)cc2cn(C)nc12` (single isomer, unassigned) [Compound 225], the IC50 in assay [1], in assay [2], in assay [3] and in assay [4] was less than 100 nM each time. Besides, the AC50 in assay [2] was less than 100 nM.

`Cc1c(O)c(-c2ccc3nc(N4CC[C@H](NC5(C)CC5)C4)ccc3n2)cc2cn(C)nc12` (single isomer, unassigned) [Compound 226, 2,7-dimethyl-5-{6-[(35)-3-[(1-methylcyclopropyl)amino]pyrrolidin-1-yl]-1,5-naphthyridin-2-yl}indazol-6-ol]: the half-inhibitory concentration (IC50) in assay [1], in assay [2], in assay [3] and in assay [4] was less than 100 nM throughout. Besides, the AC50 in assay [2] was less than 100 nM.

In the case of `Cc1nc2cc(O)c(-c3ccc4nc(N5CCC(NC6CCC6)C5)ccc4n3)cc2o1` (single isomer, unassigned) [Compound 229, 6-{6-[3-(cyclobutylamino)pyrrolidin-1-yl]-1,5-naphthyridin-2-yl}-2-methyl-1,3-benzoxazol-5-ol], the half-inhibitory concentration (IC50) in assay [1] is 100 to 1000 nM; in assay [2], less than 100 nM; in assay [3] it was less than 100 nM; in assay [4] it was less than 100 nM. Moreover, the AC50 in assay [2] was less than 100 nM.

In the case of `Cc1nc2cc(O)c(-c3ccc4nc(N5CCC(NC6CCC6)C5)ccc4n3)cc2o1` (single isomer, unassigned) [Compound 230, 6-{6-[3-(cyclobutylamino)pyrrolidin-1-yl]-1,5-naphthyridin-2-yl}-2-methyl-1,3-benzoxazol-5-ol], the IC50 in assay [1] was 100 to 1000 nM; in assay [2], less than 100 nM; in assay [3], less than 100 nM; in assay [4], less than 100 nM. Besides, the AC50 in assay [2] was less than 100 nM.

In the case of `Cc1nc2cc(O)c(-c3ccc4nc(N5CC[C@@H](NC(C)C)C5)ccc4n3)cc2o1` (single isomer, unassigned) [Compound 232, 6-{6-[3-(isopropylamino)pyrrolidin-1-yl]-1,5-naphthyridin-2-yl}-2-methyl-1,3-benzoxazol-5-ol], the IC50 in assay [1], in assay [2], in assay [3] and in assay [4] was less than 100 nM throughout. Further, in assay [2], the AC50 is less than 100 nM.
